Calls of active or inactive are those of the source. The rule behind the calls is not given here.
Key:
Staphylococcus aureus = experiment: Antibacterial activity against Staphylococcus aureus ATCC 25923 after 24 hr by disk diffusion method; assay type: functional, organism-based
Escherichia coli [1] = experiment: Covalent binding to Escherichia coli pBR322 DNA adenine-adenine site assessed as inhibition of Hind3-mediated restriction digestion at 1250 uM by restriction endonuclease analysis
Pseudomonas aeruginosa = experiment: Antibacterial activity against Pseudomonas aeruginosa ATCC 27853 after 24 hr by disk diffusion method; assay type: functional, organism-based
Bacillus subtilis = experiment: Antibacterial activity against Bacillus subtilis […] after 24 hr by disk diffusion method; assay type: functional, organism-based
Candida tropicalis = experiment: Antifungal activity against Candida tropicalis ATCC 13803 after 72 hr by disk diffusion method; assay type: functional, organism-based
Escherichia coli [2] = experiment: Binding affinity to Escherichia coli pBR322 DNA assessed as decrease in mobility of form 1 DNA at high concentration after 24 hr by agarose gel electrophoresis
Bacillus cereus = experiment: Antibacterial activity against Bacillus cereus NRLL B-3008 after 24 hr by disk diffusion method; assay type: functional, organism-based
Escherichia coli [3] = experiment: Covalent binding to Escherichia coli pBR322 DNA Guanine-guanine site assessed as inhibition of BamH1-mediated restriction digestion at 1250 uM by restriction endonuclease analysis
Escherichia coli [4] = experiment: Antibacterial activity against Escherichia coli ATCC 25922 after 24 hr by disk diffusion method; assay type: functional, organism-based
Enterococcus faecalis = experiment: Antibacterial activity against Enterococcus faecalis […] after 24 hr by disk diffusion method; assay type: functional, organism-based
Proteus vulgaris = experiment: Antibacterial activity against Proteus vulgaris ATCC 8427 after 24 hr by disk diffusion method; assay type: functional, organism-based
Candida albicans = experiment: Antifungal activity against Candida albicans ATCC 10231 after 72 hr by disk diffusion method; assay type: functional, organism-based
Escherichia coli [5] = experiment: Antibacterial activity against Escherichia coli ATCC 35218 after 24 hr by disk diffusion method; assay type: functional, organism-based
Escherichia coli [6] = experiment: Binding affinity to Escherichia coli pBR322 DNA assessed as appearance of DNA fragments at high concentration after 24 hr by agarose gel electrophoresis
Escherichia coli [7] = experiment: Covalent binding to Escherichia coli pBR322 DNA assessed as disappearance of form 2 DNA at high concentration after 24 hr by agarose gel electrophoresis
Escherichia coli [8] = experiment: Binding affinity to Escherichia coli pBR322 DNA assessed as change in mobility of form 2 DNA at low concentration after 24 hr by agarose gel electrophoresis
Escherichia coli [9] = experiment: Covalent binding to Escherichia coli pBR322 DNA assessed as appearance of small DNA fragments at high concentration after 24 hr by agarose gel electrophoresis
Escherichia coli [10] = experiment: Covalent binding to Escherichia coli pBR322 DNA assessed as increase in intensity of form 1 DNA at high concentration after 24 hr by agarose gel electrophoresis
Escherichia coli [11] = experiment: Binding affinity to Escherichia coli pBR322 DNA assessed as change in mobility of form 1 DNA at low concentration after 24 hr by agarose gel electrophoresis

`c1ccc(Cn2cnc3c(Nc4nnn[nH]4)ncnc32)cc1` was tested, and the Activity (Staphylococcus aureus) was “inactive”, the Activity (Escherichia coli [1]) was “Active” and the Activity (Pseudomonas aeruginosa) was “inactive”. For the same molecule, the Activity (Bacillus subtilis) was “inactive”, the Activity (Candida tropicalis) was “inactive” and the Activity (Escherichia coli [2]) was “Active”. The Activity (Bacillus cereus) was “inactive”, the Activity (Escherichia coli [3]) was “inactive” and the Activity (Escherichia coli [4]) was “inactive”. For the same molecule, the Activity (Enterococcus faecalis) was “inactive”, the Activity (Proteus vulgaris) was “inactive” and the Activity (Candida albicans) was “inactive”. The Activity (Escherichia coli [5]) was “inactive”.

With `CCOC(=O)Cn1cnc2c(Nc3nnn[nH]3)ncnc21` the Activity (Staphylococcus aureus) was “inactive”, the Activity (Escherichia coli [1]) was “Active” and the Activity (Pseudomonas aeruginosa) was “inactive”. The Activity (Bacillus subtilis) was “inactive”, the Activity (Candida tropicalis) was “inactive” and the Activity (Escherichia coli [2]) was “Active”. The Activity (Bacillus cereus) was “inactive”, the Activity (Escherichia coli [3]) was “inactive” and the Activity (Escherichia coli [4]) was “inactive”. The Activity (Enterococcus faecalis) was “inactive”, the Activity (Proteus vulgaris) was “inactive” and the Activity (Candida albicans) was “inactive”. The Activity (Escherichia coli [6]) was “Active” and the Activity (Escherichia coli [5]) was “inactive”.

With `Cn1nnnc1Sc1ncnc2c1ncn2Cc1ccccc1` the Activity (Staphylococcus aureus) was “inactive”, the Activity (Escherichia coli [1]) was “Active” and the Activity (Pseudomonas aeruginosa) was “inactive”. For the same molecule, the Activity (Bacillus subtilis) was “inactive”, the Activity (Candida tropicalis) was “inactive” and the Activity (Bacillus cereus) was “inactive”. For the same molecule, the Activity (Escherichia coli [3]) was “Active”, the Activity (Escherichia coli [4]) was “inactive” and the Activity (Enterococcus faecalis) was “inactive”. The Activity (Escherichia coli [7]) was “Active”, the Activity (Proteus vulgaris) was “inactive” and the Activity (Candida albicans) was “inactive”. The Activity (Escherichia coli [6]) was “Active” and the Activity (Escherichia coli [5]) was “inactive”.

In the case of `CC(C)n1cnc2c(Nc3nnn[nH]3)ncnc21`, the Activity (Staphylococcus aureus) is reported as “inactive”, the Activity (Escherichia coli [1]) is reported as “Active” and the Activity (Pseudomonas aeruginosa) is reported as “inactive”. For the same molecule, the Activity (Bacillus subtilis) was “inactive”, the Activity (Candida tropicalis) was “inactive” and the Activity (Escherichia coli [8]) was “inactive”. For the same molecule, the Activity (Bacillus cereus) was “inactive”, the Activity (Escherichia coli [9]) was “Active” and the Activity (Escherichia coli [3]) was “inactive”. The Activity (Escherichia coli [10]) was “Active”, the Activity (Escherichia coli [4]) was “inactive” and the Activity (Enterococcus faecalis) was “inactive”. For the same molecule, the Activity (Proteus vulgaris) was “inactive”, the Activity (Candida albicans) was “inactive” and the Activity (Escherichia coli [11]) was “inactive”. For the same molecule, the Activity (Escherichia coli [5]) was “inactive”.

For `CCCn1cnc2c(Sc3nnnn3C)ncnc21`, the Activity (Staphylococcus aureus) was “inactive”, the Activity (Escherichia coli [1]) was “Active” and the Activity (Pseudomonas aeruginosa) was “inactive”. For the same molecule, the Activity (Bacillus subtilis) was “inactive”, the Activity (Candida tropicalis) was “inactive” and the Activity (Escherichia coli [2]) was “Active”. For the same molecule, the Activity (Bacillus cereus) was “inactive”, the Activity (Escherichia coli [3]) was “Active” and the Activity (Escherichia coli [4]) was “inactive”. The Activity (Enterococcus faecalis) was “inactive”, the Activity (Proteus vulgaris) was “inactive” and the Activity (Candida albicans) was “inactive”. The Activity (Escherichia coli [6]) was “Active” and the Activity (Escherichia coli [5]) was “inactive”.

In the case of `Cn1nnnc1Sc1ncnc2[nH]cnc12`, the Activity (Staphylococcus aureus) is reported as “inactive”, the Activity (Escherichia coli [1]) is reported as “Active” and the Activity (Pseudomonas aeruginosa) is reported as “inactive”. The Activity (Bacillus subtilis) was “inactive”, the Activity (Candida tropicalis) was “inactive” and the Activity (Escherichia coli [2]) was “Active”. The Activity (Bacillus cereus) was “inactive”, the Activity (Escherichia coli [3]) was “Active” and the Activity (Escherichia coli [4]) was “inactive”. The Activity (Enterococcus faecalis) was “inactive”, the Activity (Proteus vulgaris) was “inactive” and the Activity (Candida albicans) was “inactive”. The Activity (Escherichia coli [5]) was “inactive”.

With `Cn1nnnc1Sc1ncnc2c1ncn2CC1CCC1` the Activity (Staphylococcus aureus) was “inactive”, the Activity (Escherichia coli [1]) was “Active” and the Activity (Pseudomonas aeruginosa) was “inactive”. For the same molecule, the Activity (Bacillus subtilis) was “inactive”, the Activity (Candida tropicalis) was “inactive” and the Activity (Bacillus cereus) was “inactive”. The Activity (Escherichia coli [3]) was “Active”, the Activity (Escherichia coli [4]) was “inactive” and the Activity (Enterococcus faecalis) was “inactive”. The Activity (Escherichia coli [7]) was “Active”, the Activity (Proteus vulgaris) was “inactive” and the Activity (Candida albicans) was “inactive”. For the same molecule, the Activity (Escherichia coli [6]) was “Active” and the Activity (Escherichia coli [5]) was “inactive”.

For `c1nc(Nc2nnn[nH]2)c2nc[nH]c2n1`, the Activity (Staphylococcus aureus) was “inactive”, the Activity (Escherichia coli [1]) was “Active” and the Activity (Pseudomonas aeruginosa) was “inactive”. For the same molecule, the Activity (Bacillus subtilis) was “inactive”, the Activity (Candida tropicalis) was “inactive” and the Activity (Escherichia coli [8]) was “inactive”. For the same molecule, the Activity (Bacillus cereus) was “inactive”, the Activity (Escherichia coli [9]) was “Active” and the Activity (Escherichia coli [3]) was “inactive”. The Activity (Escherichia coli [10]) was “Active”, the Activity (Escherichia coli [4]) was “inactive” and the Activity (Enterococcus faecalis) was “inactive”. The Activity (Proteus vulgaris) was “inactive”, the Activity (Candida albicans) was “inactive” and the Activity (Escherichia coli [11]) was “inactive”. The Activity (Escherichia coli [5]) was “inactive”.

For `CCOC(=O)Cn1cnc2c(Sc3nnnn3C)ncnc21`, the Activity (Staphylococcus aureus) was “inactive”, the Activity (Escherichia coli [1]) was “Active” and the Activity (Pseudomonas aeruginosa) was “inactive”. The Activity (Bacillus subtilis) was “inactive”, the Activity (Candida tropicalis) was “inactive” and the Activity (Bacillus cereus) was “inactive”. The Activity (Escherichia coli [3]) was “Active”, the Activity (Escherichia coli [4]) was “inactive” and the Activity (Enterococcus faecalis) was “inactive”. The Activity (Escherichia coli [7]) was “Active”, the Activity (Proteus vulgaris) was “inactive” and the Activity (Candida albicans) was “inactive”. For the same molecule, the Activity (Escherichia coli [6]) was “Active” and the Activity (Escherichia coli [5]) was “inactive”.

For `CC(C)n1cnc2c(Sc3nnnn3C)ncnc21`, the Activity (Staphylococcus aureus) was “inactive”, the Activity (Escherichia coli [1]) was “Active” and the Activity (Pseudomonas aeruginosa) was “inactive”. The Activity (Bacillus subtilis) was “inactive”, the Activity (Candida tropicalis) was “inactive” and the Activity (Escherichia coli [2]) was “Active”. For the same molecule, the Activity (Bacillus cereus) was “inactive”, the Activity (Escherichia coli [3]) was “Active” and the Activity (Escherichia coli [4]) was “inactive”. The Activity (Enterococcus faecalis) was “inactive”, the Activity (Proteus vulgaris) was “inactive” and the Activity (Candida albicans) was “inactive”. For the same molecule, the Activity (Escherichia coli [6]) was “Active” and the Activity (Escherichia coli [5]) was “inactive”.

For `CCCCCCn1cnc2c(Nc3nnn[nH]3)ncnc21`, the Activity (Staphylococcus aureus) was “inactive”, the Activity (Escherichia coli [1]) was “Active” and the Activity (Pseudomonas aeruginosa) was “inactive”. The Activity (Bacillus subtilis) was “inactive”, the Activity (Candida tropicalis) was “inactive” and the Activity (Escherichia coli [8]) was “inactive”. For the same molecule, the Activity (Bacillus cereus) was “inactive”, the Activity (Escherichia coli [9]) was “Active” and the Activity (Escherichia coli [3]) was “inactive”. For the same molecule, the Activity (Escherichia coli [10]) was “Active”, the Activity (Escherichia coli [4]) was “inactive” and the Activity (Enterococcus faecalis) was “inactive”. The Activity (Proteus vulgaris) was “inactive”, the Activity (Candida albicans) was “inactive” and the Activity (Escherichia coli [11]) was “inactive”. For the same molecule, the Activity (Escherichia coli [5]) was “inactive”.

In the case of `c1nc(Nc2nnn[nH]2)c2ncn(CC3CCC3)c2n1`, the Activity (Staphylococcus aureus) is reported as “inactive”, the Activity (Escherichia coli [1]) is reported as “Active” and the Activity (Pseudomonas aeruginosa) is reported as “inactive”. For the same molecule, the Activity (Bacillus subtilis) was “inactive”, the Activity (Candida tropicalis) was “inactive” and the Activity (Escherichia coli [2]) was “Active”. For the same molecule, the Activity (Bacillus cereus) was “inactive”, the Activity (Escherichia coli [3]) was “inactive” and the Activity (Escherichia coli [4]) was “inactive”. The Activity (Enterococcus faecalis) was “inactive”, the Activity (Proteus vulgaris) was “inactive” and the Activity (Candida albicans) was “inactive”. For the same molecule, the Activity (Escherichia coli [6]) was “Active” and the Activity (Escherichia coli [5]) was “inactive”.

`CCn1cnc2c(Nc3nnn[nH]3)ncnc21` was tested, and the Activity (Staphylococcus aureus) was “inactive”, the Activity (Escherichia coli [1]) was “Active” and the Activity (Pseudomonas aeruginosa) was “inactive”. For the same molecule, the Activity (Bacillus subtilis) was “inactive”, the Activity (Candida tropicalis) was “inactive” and the Activity (Escherichia coli [8]) was “inactive”. For the same molecule, the Activity (Bacillus cereus) was “inactive”, the Activity (Escherichia coli [9]) was “Active” and the Activity (Escherichia coli [3]) was “inactive”. The Activity (Escherichia coli [10]) was “Active”, the Activity (Escherichia coli [4]) was “inactive” and the Activity (Enterococcus faecalis) was “inactive”. The Activity (Proteus vulgaris) was “inactive”, the Activity (Candida albicans) was “inactive” and the Activity (Escherichia coli [11]) was “inactive”. The Activity (Escherichia coli [5]) was “inactive”.

In the case of `Cn1cnc2c(Nc3nnn[nH]3)ncnc21`, the Activity (Staphylococcus aureus) is reported as “inactive”, the Activity (Escherichia coli [1]) is reported as “Active” and the Activity (Pseudomonas aeruginosa) is reported as “inactive”. The Activity (Bacillus subtilis) was “inactive”, the Activity (Candida tropicalis) was “inactive” and the Activity (Escherichia coli [8]) was “inactive”. For the same molecule, the Activity (Bacillus cereus) was “inactive”, the Activity (Escherichia coli [9]) was “Active” and the Activity (Escherichia coli [3]) was “inactive”. The Activity (Escherichia coli [10]) was “Active”, the Activity (Escherichia coli [4]) was “inactive” and the Activity (Enterococcus faecalis) was “inactive”. For the same molecule, the Activity (Proteus vulgaris) was “inactive”, the Activity (Candida albicans) was “inactive” and the Activity (Escherichia coli [11]) was “inactive”. The Activity (Escherichia coli [5]) was “inactive”.

Source: ChEMBL document CHEMBL3046837, “Synthesis of some novel amino and thiotetrazole purine derivatives and investigation of their antimicrobial activity and DNA interactions” (Med Chem Res, 2013)
